# Assay results reported in patent publication US4485110A, “β-Lactam compounds, and use” (priority 1980, dated 1984).
# Like-named read-outs stand apart in the source and are kept apart here.
# Experiments:
# Experiment in all cases: β-Lactamase inhibitory activity: antibiotic MIC alone or in combination
# Type in all cases: cell-based
# E. cloacae N1 = details: for MIC: Enterobacter cloacae
# P. rettgeri WM16 = details: for MIC: Providencia rettgeri
# Description: (§1) These tables show the MIC values of amoxycillin, cephaloridine, ticarcillin and apalcillin against a number of β-lactamase producing organisms.
# P. vulgaris WO91 = details: for MIC: Proteus vulgaris
# Description: as §1
# S. marcescens US20 = details: for MIC: Serratia marcescens
# Description: as §1
# P. mirabilis 889 = test system: P. mirabilis 889
# Description: as §1
# S. aureus MB9 = details: Staphylococcus aureus
# Description: as §1
# E. coli 0111 = test system: E. coli 0111
# Description: as §1
# E. coli JT410 C+ = details: for MIC: Escherichia coli
# Description: as §1
# K. aerogenes I112 = details: for MIC: Klebsiella aerogenes
# Description: as §1
# C. freundii B10R+ = details: Citrobacter freundii
# Description: as §1
# S. aureus Russell = details: Staphylococcus aureus
# Description: as §1
# P. aeruginosa Dalgleish = details: Pseudomonas aeruginosa
# Description: as §1
# K. aerogenes A = details: Klebsiella aerogenes
# Description: as §1
# E. coli JT39R+ = details: for MIC: Escherichia coli
# Description: as §1
# P. morganii 1580 = test system: P. morganii 1580
# Description: as §1
# P. mirabilis 977 = test system: P. mirabilis 977
# Description: as §1
# P. aeruginosa A = details: Pseudomonas aeruginosa
# Description: as §1
# E. coli JT20R+ = details: Escherichia coli
# Description: as §1
# K. aerogenes Ba95R+ = details: Klebsiella aerogenes
# Description: as §1
# C. freundii E8 = details: for MIC: Citrobacter freundii
# Description: as §1
# [1] = apalcillin alone, read-out: Apalcillin MIC
# [2] = cephaloridine alone, read-out: Cephaloridine MIC
# [3] = ticarcillin alone, read-out: Ticarcillin MIC
smiles,measurement,setting,value
CC1(C)S[C@@H]2[C@H](NC(=O)[C@H](NC(=O)c3cnc4cccnc4c3O)c3ccccc3)C(=O)N2[C@H]1C(=O)O [Apalcillin],MIC,"E. cloacae N1; N1, apalcillin alone, read-out: Apalcillin MIC",5 µg/mL
same,MIC,"P. rettgeri WM16; WM16, apalcillin alone, read-out: Apalcillin MIC",10 µg/mL
same,MIC,"P. vulgaris WO91; WO91, apalcillin alone, read-out: Apalcillin MIC",10 µg/mL
same,MIC,"S. marcescens US20; US20, apalcillin alone, read-out: Apalcillin MIC",5 µg/mL
same,MIC,"P. mirabilis 889; Proteus mirabilis, 889, apalcillin alone, read-out: Apalcillin MIC",> 1000 µg/mL
same,MIC,"S. aureus MB9; MB9, apalcillin alone, read-out: Apalcillin MIC",50 µg/mL
same,MIC,"E. coli 0111; Escherichia coli, 0111, apalcillin alone, read-out: Apalcillin MIC",2.5 µg/mL
same,MIC,E. coli JT410 C+; [1],25 µg/mL
same,MIC,"K. aerogenes I112; I112, read-out: Apalcillin MIC, apalcillin alone",25 µg/mL
same,MIC,C. freundii B10R+; read-out: Apalcillin MIC,> 1000 µg/mL
same,MIC,S. aureus Russell; [1],250 µg/mL
same,MIC,P. aeruginosa Dalgleish; [1],> 1000 µg/mL
same,MIC,K. aerogenes A; [1],10 µg/mL
same,MIC,"E. coli JT39R+; read-out: Apalcillin MIC, apalcillin alone",1000 µg/mL
same,MIC,"P. morganii 1580; Morganella morganii, 1580, apalcillin alone, read-out: Apalcillin MIC",1000 µg/mL
same,MIC,"P. mirabilis 977; Proteus mirabilis, 977, apalcillin alone, read-out: Apalcillin MIC",2.5 µg/mL
same,MIC,P. aeruginosa A; [1],2.5 µg/mL
same,MIC,E. coli JT20R+; read-out: Apalcillin MIC,> 1000 µg/mL
same,MIC,K. aerogenes Ba95R+; read-out: Apalcillin MIC,> 1000 µg/mL
same,MIC,"C. freundii E8; E8, apalcillin alone, read-out: Apalcillin MIC",2.5 µg/mL
O=C(Cc1cccs1)N[C@@H]1C(=O)N2C(C(=O)[O-])=C(C[n+]3ccccc3)CS[C@H]12 [Cephaloridine],MIC,"E. cloacae N1; N1, cephaloridine alone, read-out: Cephaloridine MIC",500 µg/mL
same,Cephaloridine MIC,E. cloacae N1; cephaloridine alone,1000 µg/mL
same,MIC,"P. rettgeri WM16; WM16, cephaloridine alone, read-out: Cephaloridine MIC",1000 µg/mL
same,Cephaloridine MIC,P. rettgeri WM16; cephaloridine alone,> 1000 µg/mL
same,MIC,"P. vulgaris WO91; WO91, cephaloridine alone, read-out: Cephaloridine MIC",1000 µg/mL
same,Cephaloridine MIC,P. vulgaris WO91; cephaloridine alone,> 1000 µg/mL
same,MIC,"S. marcescens US20; US20, cephaloridine alone, read-out: Cephaloridine MIC",1000 µg/mL
same,Cephaloridine MIC,S. marcescens US20; cephaloridine alone,> 1000 µg/mL
same,MIC,"S. aureus MB9; MB9, cephaloridine alone, read-out: Cephaloridine MIC",< 0.2 µg/mL
same,MIC,"E. coli 0111; Escherichia coli, 0111, cephaloridine alone, read-out: Cephaloridine MIC",2.5 µg/mL
same,Cephaloridine MIC,E. coli 0111; cephaloridine alone,5.0 µg/mL
same,MIC,E. coli JT410 C+; [2],50 µg/mL
same,Cephaloridine MIC,E. coli JT410 C+; cephaloridine alone,100 µg/mL
same,MIC,"K. aerogenes I112; I112, read-out: Cephaloridine MIC, cephaloridine alone",5 µg/mL
same,MIC,C. freundii B10R+; read-out: Cephaloridine MIC,> 1000 µg/mL
same,MIC,P. aeruginosa Dalgleish; [2],> 1000 µg/mL
same,MIC,K. aerogenes A; [2],2.5 µg/mL
same,MIC,"E. coli JT39R+; read-out: Cephaloridine MIC, cephaloridine alone",5 µg/mL
same,Cephaloridine MIC,E. coli JT39R+; cephaloridine alone,10 µg/mL
same,MIC,"P. morganii 1580; Morganella morganii, 1580, cephaloridine alone, read-out: Cephaloridine MIC",1000 µg/mL
same,Cephaloridine MIC,P. morganii 1580; cephaloridine alone,> 1000 µg/mL
same,MIC,"P. mirabilis 977; Proteus mirabilis, 977, cephaloridine alone, read-out: Cephaloridine MIC",10 µg/mL
same,Cephaloridine MIC,P. mirabilis 977; cephaloridine alone,5.0 µg/mL
same,MIC,P. aeruginosa A; [2],> 1000 µg/mL
same,MIC,E. coli JT20R+; read-out: Cephaloridine MIC,25 µg/mL
same,MIC,K. aerogenes Ba95R+; read-out: Cephaloridine MIC,100 µg/mL
same,MIC,"C. freundii E8; E8, cephaloridine alone, read-out: Cephaloridine MIC",500 µg/mL
CC1(C)S[C@@H]2[C@H](NC(=O)[C@H](C(=O)O)c3ccsc3)C(=O)N2[C@H]1C(=O)O [Ticarcillin],MIC,"E. cloacae N1; N1, ticarcillin alone, read-out: Ticarcillin MIC",2.5 µg/mL
same,MIC,"S. marcescens US20; US20, ticarcillin alone, read-out: Ticarcillin MIC",5 µg/mL
same,MIC,"P. mirabilis 889; Proteus mirabilis, 889, ticarcillin alone, read-out: Ticarcillin MIC",> 1000 µg/mL
same,MIC,"S. aureus MB9; MB9, ticarcillin alone, read-out: Ticarcillin MIC",10 µg/mL
same,MIC,"E. coli 0111; Escherichia coli, 0111, ticarcillin alone, read-out: Ticarcillin MIC",5 µg/mL
same,MIC,"K. aerogenes I112; I112, read-out: Ticarcillin MIC, ticarcillin alone",500 µg/mL
same,Ticarcillin MIC,K. aerogenes I112; ticarcillin alone,250 µg/mL
same,MIC,C. freundii B10R+; read-out: Ticarcillin MIC,> 1000 µg/mL
same,MIC,S. aureus Russell; [3],25 µg/mL
same,MIC,P. aeruginosa Dalgleish; [3],> 1000 µg/mL
same,MIC,K. aerogenes A; [3],100 µg/mL
same,MIC,"E. coli JT39R+; read-out: Ticarcillin MIC, ticarcillin alone",> 1000 µg/mL
same,MIC,"P. mirabilis 977; Proteus mirabilis, 977, ticarcillin alone, read-out: Ticarcillin MIC",1 µg/mL
same,MIC,P. aeruginosa A; [3],25 µg/mL
same,MIC,E. coli JT20R+; read-out: Ticarcillin MIC,> 1000 µg/mL
same,MIC,K. aerogenes Ba95R+; read-out: Ticarcillin MIC,> 1000 µg/mL
same,MIC,"C. freundii E8; E8, ticarcillin alone, read-out: Ticarcillin MIC",2.5 µg/mL
same,Ticarcillin MIC,C. freundii E8; ticarcillin alone,5.0 µg/mL
